Test results taken from the supplement of paper PMC10307832.

Assays:
Assay in all cases: relative viability (nuclei count vs DMSO), 5 days (fraction); higher = more cells survive
AZ505 + Palbociclib = compound: C1CCC(CC1)N(CCNCCC2=C3C(=C(C=C2)O)NC(=O)CO3)C(=O)CCNCCC4=CC(=C(C=C4)Cl)Cl [AZ505] + CC(=O)c1c(C)c2cnc(Nc3ccc(N4CCNCC4)cn3)nc2n(C2CCCC2)c1=O [Palbociclib] (partner 0.5 µM)
How it was run: (§1)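 Lung cancer cell lines in 1536-well plates were dosed by pin tool the day after seeding, either with one drug alone or with a fixed anchor-drug dose plus five library-drug doses (not always all listed) in √10 steps. After 5 days, cells were fixed and their nuclei stained in one step (final 0.05% Triton X-100, 1% formaldehyde, 1 ug/ml Hoechst), then counted on 4× images. Relative viability is the nuclei count in treated wells divided by that in vehicle wells. Values are medians of duplicate plates.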

AZ505 + Crizotinib = compound: C1CCC(CC1)N(CCNCCC2=C3C(=C(C=C2)O)NC(=O)CO3)C(=O)CCNCCC4=CC(=C(C=C4)Cl)Cl [AZ505] + C[C@@H](Oc1cc(-c2cnn(C3CCNCC3)c2)cnc1N)c1c(Cl)ccc(F)c1Cl [Crizotinib] (partner 1 µM)
How it was run: as §1

Dactolisib + Bortezomib = compound: Cn1c(=O)n(-c2ccc(C(C)(C)C#N)cc2)c2c3cc(-c4cnc5ccccc5c4)ccc3ncc21 [Dactolisib] + CC(C)C[C@H](NC(=O)[C@H](Cc1ccccc1)NC(=O)c1cnccn1)B(O)O [Bortezomib] (partner 0.002 µM)
How it was run: as §1

Dactolisib + Vorinostat = compound: Cn1c(=O)n(-c2ccc(C(C)(C)C#N)cc2)c2c3cc(-c4cnc5ccccc5c4)ccc3ncc21 [Dactolisib] + O=C(CCCCCCC(=O)Nc1ccccc1)NO [Vorinostat] (partner 1 µM)
How it was run: as §1

Cell Line	relative viability (AZ505 + Palbociclib; first compound 0.08 µM)	relative viability (AZ505 + Palbociclib; first compound 0.8 µM)	relative viability (AZ505 + Palbociclib; first compound 2.53 µM)	relative viability (AZ505 + Palbociclib; first compound 8 µM)	relative viability (AZ505 + Crizotinib; first compound 0.08 µM)	relative viability (AZ505 + Crizotinib; first compound 0.253 µM)	relative viability (AZ505 + Crizotinib; first compound 0.8 µM)	relative viability (AZ505 + Crizotinib; first compound 2.53 µM)	relative viability (AZ505 + Crizotinib; first compound 8 µM)	relative viability (Dactolisib + Bortezomib; first compound 0.002 µM)	relative viability (Dactolisib + Bortezomib; first compound 0.006325 µM)	relative viability (Dactolisib + Bortezomib; first compound 0.02 µM)	relative viability (Dactolisib + Bortezomib; first compound 0.06325 µM)	relative viability (Dactolisib + Bortezomib; first compound 0.2 µM)	relative viability (Dactolisib + Vorinostat; first compound 0.002 µM)	relative viability (Dactolisib + Vorinostat; first compound 0.006325 µM)	relative viability (Dactolisib + Vorinostat; first compound 0.02 µM)	relative viability (Dactolisib + Vorinostat; first compound 0.06325 µM)	relative viability (Dactolisib + Vorinostat; first compound 0.2 µM)	relative viability (AZ505 + Palbociclib; first compound 0.253 µM)
NCI-H2405	0.427	0.441	0.463	0.426	0.634	0.596	0.586	0.565	0.63	1	0.97	0.96	0.892	0.628	1.09	1.02	0.839	0.391	0.277	
NCI-H3122	0.212	0.18	0.19	0.197	0.255	0.275	0.299	0.268	0.294	1	0.987	1.11	1.09	0.927	1.03	0.854	1.09	1.04	0.671	0.228
PC-3 [JPC-3]	0.527	0.521	0.566	0.568	0.885	0.979	0.916	0.94	1.03	0.847	0.842	0.802	0.902	0.869	0.968	0.843	0.748	0.782	0.426	
PC-14	0.402	0.456	0.471	0.595	0.787	0.805	0.934	0.846	0.95	0.904	0.779	0.905	0.559	0.416	0.767	0.681	0.417	0.155	0.163	0.439
RERF-LC-KJ	0.982	1.05	1	0.984	0.769	0.848	0.774	0.842	0.833	1.17	0.978	1.01	0.641	0.574	0.683	0.699	0.707	0.452	0.542	1.15
SK-LU-1	0.319	0.292	0.322	0.336	0.608	0.731	0.649	0.664	0.714		1.05	1.21	1.16	0.457	0.766	0.697	0.671	0.448	0.321	0.343
SW 1573	0.342	0.389	0.441	0.4	0.878	0.868	0.927	0.733	0.886	1.18	0.847	0.771	0.331	0.373	0.571	0.588	0.627	0.243	0.25	0.393
